The test system of assay [1] is Rhizoctonia solani. The assay can be described thus: Inhibitory concentrations of antimicrobial peptides and antibiotics against Rhizoctonia solani in vitro. In kind it is cell-based. Conditions: for IC50: ± std, read-out: IC50, concentration that inhibits 50% growth of fungal cultures vs control. Also on record: MIC, minimum concentration that completely inhibits growth of fungal cells: unit: μM.

Assay [2] has as its system phytopathogenic bacteria and fungi. The assay can be described thus: Antibacterial and antifungal resistance of Arabidopsis expressing antimicrobial peptides. Type of assay: in vivo. The note with it: carbonic anhydrase promoter, rice endochitinase signal peptide. The text has this:
Including the acidic peptide is thus a preferred aspect of practicing the invention, although it may not be required. Tagging the βPTH precursor with EGFP greatly impaired antimicrobial activity in the mature peptide, even though EGFP was fused to the C-terminus of the acidic protein, the portion that was post-translationally cleaved.

The subject of assay [3] is fungal cultures. The note with it: literature values (Thevissen et al. 1996; Oard et al. 2004); read-out: IC50, concentration of a peptide that inhibits 50% growth of fungal cultures relative to control; cited from earlier work.
Assay [4] relates to Neurospora crassa and Saccharomyces cerevisiae. Also on record: dose or concentration left out as unconfirmed. Conditions: concentration as low as; cited from earlier work.

Ends that are not written are not given here.

For `CC[C@H](C)[C@H](NC(=O)CN)C(=O)NCC(=O)N[C@@H](C)C(=O)N[C@H](C(=O)N[C@@H](CC(C)C)C(=O)N[C@@H](CCCCN)C(=O)N[C@H](C(=O)N[C@@H](CC(C)C)C(=O)N[C@H](C(=O)N[C@H](C(=O)NCC(=O)N[C@@H](CC(C)C)C(=O)N1CCC[C@H]1C(=O)N[C@@H](C)C(=O)N[C@@H](CC(C)C)C(=O)N[C@H](C(=O)N[C@@H](CO)C(=O)N[C@@H](Cc1c[nH]c2ccccc12)C(=O)N[C@H](C(=O)N[C@@H](CCCCN)C(=O)N[C@@H](CCCNC(=N)N)C(=O)N[C@@H](CCCCN)C(=O)N[C@@H](CCCNC(=N)N)C(=O)N[C@@H](CCC(N)=O)C(=O)N[C@@H](CCC(N)=O)C(N)=O)[C@@H](C)CC)[C@@H](C)CC)[C@@H](C)O)[C@@H](C)O)C(C)C)C(C)C` [Melittin], in assay [1], the “MIC, minimum concentration that completely inhibits growth of fungal cells” value came to 13.1 µmol and the IC50 was determined as 7100 ± 600 nM.

Regarding `C[C@@H]([C@H](N)C(=O)N[C@H](C(=O)O)[C@H]1O[C@@H](n2ccc(=O)[nH]c2=O)[C@H](O)[C@@H]1O)[C@H](O)c1ccc(O)cn1` [Nikkomycin Z], in assay [1], the “MIC, minimum concentration that completely inhibits growth of fungal cells” value turned out to be 4.5 µmol and the IC50 was found to be 860 ± 100 nM.

In the case of `C[C@@H]1[C@H](O)[C@@H](C)/C=C/C=C/CC/C=C/C=C/C=C/C=C/C(O[C@H]2O[C@H](C)[C@@H](O)[C@H](N)[C@@H]2O)CC2O[C@](O)(CC(O)C(O)CCC(O)CC(O)CC(O)CC(=O)O[C@H]1C)CC(O)C2C(=O)O` (some centres unmarked) [Nystatin], in assay [1], the “MIC, minimum concentration that completely inhibits growth of fungal cells” value amounted to 5.2 µmol and the IC50 came to 1100 ± 300 nM.

As to “Cecropin B (KWKVFKKIEKMGRNIRNGIVKAGPAIAVLGEAKAL; ends and bridges not checked; UniProt P01508 27-61, looked up) [natural 35-residue peptide from the Cecropia moth]”, in assay [1], the “MIC, minimum concentration that completely inhibits growth of fungal cells” value was determined as 9.8 µmol and the IC50 came out at 4600 ± 300 nM. For the same compound, the “Antimicrobial resistance in vivo of Arabidopsis expressing the peptide” value in assay [2] is reported as “only antibacterial activity, not antifungal activity”.

Consider Magainin II, for which, in assay [1], the “MIC, minimum concentration that completely inhibits growth of fungal cells” value amounted to 30.2 µmol and the IC50 turned out to be 15700 ± 900 nM.

In the case of “α-Hordothionin (KSCCRSTLGRNCYNLCRVRGAQKLCAGVCRCKLTSSGKCPTGFPK) [barley seed-specific thionin, GenBank X05901]”, in assay [3], the IC50 was 1000 nM.

For the compound α-purothionin, in assay [4], the “Inhibition of fungal growth” value is “up to 50%”.

In the case of β-Purothionin [βPTH], in assay [1], the “MIC, minimum concentration that completely inhibits growth of fungal cells” value came out at 5.02 µmol and the IC50 came out at 1140 ± 400 nM. For the same compound, in assay [3], the IC50 was 1100 nM. Moreover, the “Antimicrobial resistance in vivo of Arabidopsis expressing the peptide” value in assay [2] is “the greatest antibacterial and antifungal resistance”.

Values taken from patent US20130067616A1, “Plant Defensive Peptides” (priority 2010, published 2013).
